# Marks after values point to notes of the source that are not given here.
# Legend:
# matrix metalloprotease-1 = test: Matrix metalloprotease-1 production of NHDF after IL-1β, ELISA (Experiments 5 and 9); format: cell-based, human; conditions: for Reduction rate of the production level of matrix metalloprotease-1 activity (%): single use, reduction against control; for Production level of matrix metalloprotease-1 (%): human IL-1β 1 ng/ml, control = 100%
# Protocol: Normal human dermal fibroblasts (NHDF), which had been suspended in a Dulbecco's Modified Eagle Medium supplemented with 10% fetal calf serum to give a concentration of 2.5×10^5 cells/mL, were placed in 96-well microplates by 0.1 mL/well and cultured until reaching a confluent state over the bottom of each well. Thereafter, the medium in each well was replaced with a fresh serum-free culture medium and culture for another 24 hours, added with any one of the test substances in Table 6 at each concentration shown in the table, and cultured for additional 24 hours. Then, the resulting cell cultures were added with human IL-1β to give a final concentration of 1 ng/ml, followed by culturing the cells for another 24 hours. After completion of the culture, matrix metalloprotease-1 in the supernatant in each well was detected with an enzyme-linked immuno sorbent assay (ELISA), commercialized by R & D Systems, Inc., MN, USA, developed coloration with tetramethylbenzidine, and measured for absorption at a wavelength of 450 nm. A control system was provided similarly as above except for not adding any test substance, and determined for the activity of matrix metalloprotease-1 similarly as in the above to be regarded as 100%. The production level of matrix metalloprotease-1 for each test substance was comparatively evaluated based on the following equation. Equation: Production level of matrix metalloprotease-1 (relative value (%))=[(Absorbance of a sample with any one of test substances)/(Absorbance of control)]×100
# The experiment was repeated three times, and the data were compared to that of control with the Dunnett's multiple comparisons test. The symbol “*” means a level of significance of p<0.01.
# Except for adding the test substances listed in Table 12 at respective concentrations shown in the table, experiments were respectively conducted in accordance with the methods in Experiment 5 disclosed in the specification to examine the effect of the combination use with ascorbic acid 2-glucoside used as a skin whitener in cosmetics on the action of anti-wrinkles by analogues of adenosine N1-oxide 5′-phosphate. A control system was provided and similarly treated as above except for not adding any test substance. The reduction rate of the production level of matrix metalloprotease-1 against that of control based on the following equation. Equation: Reduction rate of the production level of matrix metalloprotease−1(%)=100−[(Absorbance of a sample with any one of test substances)/(Absorbance of control)]×100
# [1] = test system: normal human epidermal keratinocytes; test: Differentiation of keratinocytes, microscopic morphology score (Experiment 1-1); format: cell-based; conditions: 3 days culture, mean of triplicate
# Text: To 12-well plates, one milliliter of a cell suspension with a cell density of 2.5×10^4 cells/mL prepared by suspending normal human epidermal keratinocytes in EpiLife, a product name of a medium for keratinocytes containing a growth factor, commercialized by Life Technologies, Inc., 9800 Medical Center Drive Rockville, Md. 20850 USA; followed by culturing the cells until prevailing up to about ½ of the bottom surface of each well. Thereafter, the culture medium in each well was replaced with a medium for keratinocytes free of growth factor and cultured for two days, and then replaced with a fresh medium for keratinocytes, which contained any one of the test substances in Table 1 at respective concentrations as indicated in the table, and then cultured for three days. As a control, a culture system was provided similarly as above except for not adding any of the test substances. Under a microscopic condition, cell morphology was observed and evaluated for the keratinocyte-differentiation-inducing ability based on the following criteria:
# Score 1: The number of cells in a flattened form against the total cells is 50% or lower.
# Score 2: The number of cells in a flattened form against the total cells is 50% or more.
# Score 3: Nearly all of the cells are in an irregular shape and there appears some cells with gloss.
# It means that the higher the score the more the cell differentiation was accelerated. Each experiment system was performed in a triplicate manner, followed by calculating a mean value for each system.
# [2] = test system: normal human dermal fibroblasts (NHDF); test: Number of cells, cytometry kit (Experiment 5); format: cell-based; conditions: control = 100%
# Text: The number of cells was counted with a cytometry kit (or a staining method) and the variation of cell number when added with any one of the test substances, based on the value of control being regarded as 100%.
# [3] = test system: normal human epidermal keratinocytes; test: Production level of cornified envelope, absorbance 310 nm (Experiments 1-2 and 7); format: cell-based; conditions: for Production level (%) of cornified envelope: 25 μM, control = 100%
# Protocol: Normal human epidermal keratinocytes were cultured similarly as in Experiment 1-1, except for adding the test substances listed in Table 2 at prescribed concentrations to the cells. The resulting cultured cells were washed once with phosphate buffered saline (PBS), followed by scrapping off the cells adhered to each culture plate by adding 0.5 mL of PBS to each well of the plates. The cell suspensions thus obtained were added with 10% sodium lauryl sulfate solution in a volume of ¼ of each of the suspension volumes, followed by stirring and freezing the resulting mixtures at −80° C. After thawing, the resulting mixtures were centrifuged at 12,000×g for 15 min, followed by collecting the cell precipitates which were then washed once with phosphate buffered saline containing 2% sodium lauryl sulfate. The resulting mixtures were centrifuged at 12,000×g for 15 min, followed by collecting the cells and suspending the collected cells with phosphate buffered saline containing 2% sodium lauryl sulfate and 20 mM dithiothreitol. The resulting cell suspensions were boiled in a boiling water bath for one hour and measured for absorbance at a wavelength of 310 nm to determine the production level of cornified envelope for each test system added with any of the test substances. A control system was provided similarly as above except for not adding any one of the test substances to the system, and determined for absorbance at a wavelength of 310 nm similarly as in the above to be regarded as 100%. The production level of cornified envelope for each test substance was relatively evaluated based on the following equation. Equation: Production level of cornified envelope (Relative value (%))=[(Absorbance of a sample with any one of test substances)/(Absorbance of Control)]×100
# The experiment was repeated three times, and the data was subjected to the Dunnett's multiple comparisons with Control. The symbol “*” means a level of significance of p<0.01.
# Except for adding the test substances listed in Tables 8 and 9 at respective concentrations shown in the tables, experiments were respectively conducted in accordance with the methods in Experiments 1-2 and 1-3 disclosed in the specification to examine the effect of the combination use of epigallocatechin gallate, which is used as an antioxidant for cosmetics, and sodium adenosine N1-oxide 5′-phosphate on the action of accelerating the cornified-envelope production and the action of enhancing the transglutaminase activity of sodium adenosine N1-oxide 5′-phosphate. A control system was provided and similarly treated as above except for not adding any test substance and was determined for both the increase rates of cornified-envelope production level and the transglutaminase activity, based on the following equations. Equation: Increase rate of cornified envelope production level (%)={[(Absorbance of a sample with any one of test substances)/(Absorbance of control)]×100}−100 Equation: Increase rate of transglutaminase (%)={[(Absorbance of a sample with any one of test substances)/(Absorbance of control)]×100}−100
compound,measurement,setting,value
"Nc1c2ncn([C@@H]3O[C@H](COP(=O)([O-])O)[C@@H](O)[C@H]3O)c2nc[n+]1[O-].[Na+] [Sodium adenosine N1-oxide 5′-phosphate, sodium adenosine N1-oxide 5′-phosphate]",Reduction rate of the production level of matrix metalloprotease-1 activity (%),matrix metalloprotease-1; 2 μM,2.9%
same,Production level of matrix metalloprotease-1 (%),matrix metalloprotease-1; 5 μM,96.0%
same,Reduction rate of the production level of matrix metalloprotease-1 activity (%),matrix metalloprotease-1; 5 μM,4.0%
same,Production level of matrix metalloprotease-1 (%),matrix metalloprotease-1; 10 μM,83.1* %
same,Production level of matrix metalloprotease-1 (%),"matrix metalloprotease-1; 10 μM, listed as sodium adenosine N1-oxide 5′-phosphate",about 80%
same,Reduction rate of the production level of matrix metalloprotease-1 activity (%),matrix metalloprotease-1; 10 μM,16.9%
same,Production level of matrix metalloprotease-1 (%),matrix metalloprotease-1; 20 μM,31.8* %
same,Production level of matrix metalloprotease-1 (%),"matrix metalloprotease-1; 20 μM, listed as sodium adenosine N1-oxide 5′-phosphate",about 30%
same,Score,[1]; 10 μM,2.0
same,Score,[1]; 20 μM,3.0
same,Score,[1]; 40 μM,3.0
same,Number of cells (%),[2]; 5 μM,99.9%
same,Number of cells (%),[2]; 10 μM,99.5%
same,Number of cells (%),[2]; 20 μM,92.2%
same,Increase rate of cornified envelope formation level (%),"[3]; 15 μM, single use, increase over control",2.8%
same,Production level (%) of cornified envelope,[3],178.7* %
same,Production level (%) of cornified envelope,[3]; listed as adenosine N1-oxide 5′-phosphate,about 180%

# — patent publication US10071042B2, “External dermatological agent for anti-ageing” (Hayashibara Co., Ltd., priority 2014, dated 2018)
